Reference: patent US8642593B2, “2,4-pyrimidinediamine compounds and prodrugs and their uses” (Rigel Pharmaceuticals, Inc., priority 2009, dated 2014)
Like-named read-outs stand apart in the source and are kept apart here.

What was measured:
[1] = system: mast cell activation induced by FcγR cross-linking (CHMC cells); experiment: LD Tryptase CHMC: tryptase release assay; format: cell-based, Human; conditions: for IC50: Mast cell; for potency compared with the control, whole cell assay: vs control compound
Description: Compounds are assayed for inhibition of mast cell activation induced by FcγR cross-linking by measuring the activity of tryptase released upon degranulation as follows:
Human mast cells are cultured and differentiated from CD38-negative progenitor cell as described in U.S. Patent Publication No. 2005/0234049, which is hereby incorporated herein by reference in its entirety. For example, 65 μL of various concentrations of the test compound are prepared in MT (137 mM NaCl, 2.7 mM KCl, 1.8 mM CaCl2, 1.0 mM MgCl2, 5.6 mM Glucose, 20 mM Hepes (pH 7.4), 0.1% Bovine Serum Albumin, (Sigma, #A4503)) containing 2% MeOH and 1% DMSO, or control buffer are added to duplicate 96-well V-bottom plates. Pelleted and re-suspended (in warm MT) CHMC cells (65 μL) are added to each 96-well plate, mixed and incubated for 1 hour at 37° C. […] MT (25 μL) is added to control wells. After a 60-minute incubation at 37° C., cells and cell debris were pelleted by centrifugation at 1000 rpm for 10 min and tryptase and leukotriene C4 levels are measured.
To measure tryptase levels, 25 μL of supernatant from each well is transferred to a fresh 96-well black bottom plate, to which 100 μL of fresh tryptase substrate solution [(Z-Ala-Lys-Arg-AMC2TFA; Enzyme Systems Products, #AMC-246)]1:2000 in tryptase assay buffer [0.1M Hepes (pH 7.5), 10% w/v Glycerol, 10 μM Heparin (Sigma H-4898) 0.01% NaN3] is added. After 30 minutes incubation at room temperature, the optical density of the plates is measured at 355 nm/460 nm on a spectrophotometric plate reader.
Compounds of the disclosure were assayed for their ability to inhibit mast cell activation induced by FcγR cross-linking by measuring the activity of tryptase released upon degranulation.

[2] = biological target: T1, Ret kinase in SK-N-SH brain neuroblastoma cells (Homo sapiens, UniProt P07949); experiment: Cellular Ret Assay; format: cell-based; conditions: GDNF, Table 2, unit inferred
T1 construct: Ret is immunoprecipitated from the detergent-soluble cell lysate; host or cells: SK-N-SH brain neuroblastoma cells
T1 sequence (P07949 29-1114): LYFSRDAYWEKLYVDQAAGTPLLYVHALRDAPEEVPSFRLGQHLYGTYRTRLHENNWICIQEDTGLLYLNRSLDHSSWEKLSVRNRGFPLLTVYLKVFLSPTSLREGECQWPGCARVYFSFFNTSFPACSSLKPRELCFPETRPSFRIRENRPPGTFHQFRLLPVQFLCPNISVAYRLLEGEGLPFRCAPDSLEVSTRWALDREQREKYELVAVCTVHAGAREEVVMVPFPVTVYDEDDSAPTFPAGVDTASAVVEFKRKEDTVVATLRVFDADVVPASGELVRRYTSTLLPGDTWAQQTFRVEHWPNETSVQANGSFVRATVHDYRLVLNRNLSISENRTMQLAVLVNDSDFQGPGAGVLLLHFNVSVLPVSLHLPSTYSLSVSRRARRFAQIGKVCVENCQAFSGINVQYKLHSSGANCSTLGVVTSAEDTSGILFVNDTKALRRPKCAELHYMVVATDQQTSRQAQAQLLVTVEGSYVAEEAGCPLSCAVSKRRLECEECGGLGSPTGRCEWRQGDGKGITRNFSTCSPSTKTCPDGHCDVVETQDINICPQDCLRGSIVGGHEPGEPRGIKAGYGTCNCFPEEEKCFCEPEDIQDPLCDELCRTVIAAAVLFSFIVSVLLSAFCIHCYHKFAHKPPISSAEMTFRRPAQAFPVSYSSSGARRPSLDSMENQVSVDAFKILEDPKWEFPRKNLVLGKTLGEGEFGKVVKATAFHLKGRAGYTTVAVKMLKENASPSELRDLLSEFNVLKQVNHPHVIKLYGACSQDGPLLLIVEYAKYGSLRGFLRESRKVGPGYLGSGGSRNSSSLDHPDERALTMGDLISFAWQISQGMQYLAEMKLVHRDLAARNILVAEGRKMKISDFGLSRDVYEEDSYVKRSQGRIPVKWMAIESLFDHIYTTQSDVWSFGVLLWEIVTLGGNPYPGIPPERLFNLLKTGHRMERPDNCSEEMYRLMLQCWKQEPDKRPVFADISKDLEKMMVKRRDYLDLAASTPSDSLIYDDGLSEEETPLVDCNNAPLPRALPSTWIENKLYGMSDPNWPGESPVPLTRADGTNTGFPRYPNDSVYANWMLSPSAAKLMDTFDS
Description: Compounds are tested for the ability to inhibit Ret kinase in cells. SK-N-SH brain neuroblastoma cells (ATCC, #HTB-1, maintained and plated in DMEM (Cellgro Mediatech, #10-013-CV) with 10% fetal bovine serum (JRH, #12106-500M) are seeded in 10 cm plates in 10 mL of culture media and allowed to reach 85% confluence by the next day. The medium is replaced with 5 mL of DMEM (without fetal bovine serum) containing DMSO or test compound (final 0.1% DMSO), and incubated at 37° C./5% CO2 for 1 hour. SK-N-SH cells are then stimulated with 50 ng/mL of human recombinant GDNF (Peprotech, #450-10) for 10 minutes. Cells are washed once with cold 1×PBS and lysed with 500 μL of 1% NP-40 lysis buffer (Tris HCl pH 7.4 with 150 mM NaCl, 1 mM NaVn, 1% Nonidet-P40 (Fisher Scientific, #PI-28324), protease inhibitor tablet (Roche, 1697498)). […]
After washing with 1×TBST for 2 hours with five buffer changes, the membrane is probed with Goat anti-Mouse IgG HRP antibody (Jackson Immunoresearch Labs, #115-035-146, 1:2000) in 1×TBST+5% milk for 1 hour at room temperature. The membrane is washed with TBST for 2 hours with five buffer changes, treated with ECL plus Western Blot detection reagent (GE Healthcare, formerly Amersham, #RPN2132) according to the instruction manual, and the chemiluminescent signal is detected on Kodak Biomax MR Film (VWR, # IB8701302).

[3] = system: allergen induced basophil degranulation; experiment: CD63 Assay (BASOTEST, FACS, whole blood, anti-IgE); format: cell-based; conditions: for potency compared with the control in the presence of whole blood (CD63 assay): vs control compound; for IC50: whole blood, anti-IgE, Table 2, unit inferred
Description: Compounds are tested for the ability to inhibit allergen induced basophil degranulation. The BASOTEST® kit (Orpegen Pharma GmbH, #10-0500) is used in this assay. In a 5 mL FACS tube 105 μL of Heparinized whole blood, 25 μL of test compound solution (in DMSO) are incubated at room temperature for 30-60 minutes. To induce degranulation, 20 μL stimulation buffer (Reagent B) is added, and the tube is incubated for 10 min in a 37° C. water bath. Then, 100 μL of anti-IgE (2 μg/mL) is added, or 100 µL of washing solution (reagent A) is added (i.e., as a negative control). The tube is incubated for 20 min in a 37° C. water bath. Degranulation is then stopped by incubation on ice for 5 min. 20 μL of staining reagent (reagent F) is added, and the tube is incubated on ice in the dark for 20 min. 2 mL of room temperature lysing solution is added, and the tube is incubated at room temperature for 10 min. The tubes are spun down at 4° C. for 5 min at 1600 rpm, and the supernatant is discarded. 3 mL washing solution (reagent A) is added, and the tubes spun down at 4° C. for 5 min at 1600 rpm, and the supernatant is discarded. 200 μL washing solution is added to the remaining cell pellet, and the samples are incubated on ice in the dark until analysis (within 2 h). Analysis is performed using flow cytometry at 488 nm using the conditions specified in the BASOTEST® kit instructions to determine percentage of activated basophilic granulocytes.

[4] = Homo sapiens, Table 2, unit inferred, read-out: LD Tryptase CHMC
[5] = Homo sapiens, read-out: IC50 value (tryptase assay)
[6] = human mast cells, anti-IgG stimulation, read-out: IC50 (LD Tryptase CHMC)

Row | IC50 [1, 4] | IC50 [1, 5] | IC50 [1, 6] | IC50 [2] | IC50 [3] | Compound | potency compared with the control, whole cell assay [1] | potency compared with the control in the presence of whole blood (CD63 assay) [3]
1 | 90 nM | < 100 nM | 90 nM | > 5000 nM | 250 nM | CC1(C)Oc2ccc(Nc3nc(Nc4ccc(N5CCOCC5)nc4)ncc3F)nc2NC1=O [Compound 1, N4-(2,2-Dimethyl-3-oxo-4H-5-pyrido[1,4]oxazin-6-yl)-5-fluoro-N2-[6-morpholinopyridin-3-yl]-2,4-pyrimidinediamine] | somewhat less potent than the control | more potent
2 | 80 nM | < 100 nM | 80 nM | > 1000 nM | 300 nM | CC1(C)Oc2ccc(Nc3nc(Nc4ccc(N5CCOCC5)cc4)ncc3F)nc2NC1=O [Compound 3, N4-(2,2-Dimethyl-3-oxo-4H-5-pyrido[1,4]oxazin-6-yl)-5-fluoro-N2-(4-morpholinophenyl)-2,4-pyrimidinediamine] | somewhat less potent than the control | more potent
